Data reported in the NIST ThermoML archive (doi:10.1021/je8005369).

Conditions: Liquid; for mass density: Vibrating Wire Viscometer; for viscosity: Vibrating wire viscometry

CC(C)OC(C)C [diisopropyl ether]
Conditions | mass density [kg/m3] | viscosity [mPa·s]
243.15 K, 100 kPa | 772.385 | 0.6191
243.15 K, 4660 kPa | 776.195 | 0.6466
243.15 K, 10070 kPa | 780.42 | 0.6826
243.15 K, 15370 kPa | 784.377 | 0.7177
243.15 K, 20860 kPa | 788.392 | 0.7529
253.15 K, 100 kPa | 762.804 | 0.5343
253.15 K, 4720 kPa | 766.842 | 0.5601
253.15 K, 9990 kPa | 771.35 | 0.5898
253.15 K, 15400 kPa | 775.704 | 0.6187
253.15 K, 20740 kPa | 779.692 | 0.65
263.15 K, 100 kPa | 753.037 | 0.4687
263.15 K, 4470 kPa | 757.298 | 0.4896
263.15 K, 9490 kPa | 761.805 | 0.5141
263.15 K, 14490 kPa | 766.126 | 0.5388
263.15 K, 19640 kPa | 770.142 | 0.5638
273.15 K, 100 kPa | 743.309 | 0.4142
273.15 K, 4690 kPa | 748.026 | 0.4344
273.15 K, 10010 kPa | 753.179 | 0.4579
273.15 K, 15290 kPa | 757.99 | 0.4815
273.15 K, 20420 kPa | 762.359 | 0.5042
283.15 K, 100 kPa | 733.393 | 0.3689
283.15 K, 4700 kPa | 738.525 | 0.3877
283.15 K, 10100 kPa | 744.147 | 0.4088
283.15 K, 15460 kPa | 749.321 | 0.4306
283.15 K, 21360 kPa | 754.612 | 0.456
293.15 K, 100 kPa | 723.318 | 0.3311
293.15 K, 4470 kPa | 728.638 | 0.3474
293.15 K, 9590 kPa | 734.393 | 0.3671
293.15 K, 14750 kPa | 739.779 | 0.3855
293.15 K, 20450 kPa | 745.301 | 0.4079
303.15 K, 100 kPa | 713.113 | 0.299
303.15 K, 4440 kPa | 718.817 | 0.3124
303.15 K, 9500 kPa | 725.014 | 0.331
303.15 K, 14650 kPa | 730.787 | 0.3496
303.15 K, 19650 kPa | 735.942 | 0.3668
313.15 K, 100 kPa | 702.804 | 0.2703
313.15 K, 4840 kPa | 709.502 | 0.2869
313.15 K, 10140 kPa | 716.438 | 0.3038
313.15 K, 15550 kPa | 722.843 | 0.3213
313.15 K, 21490 kPa | 729.298 | 0.3414
323.15 K, 100 kPa | 692.225 | 0.2468
323.15 K, 4760 kPa | 699.461 | 0.2615
323.15 K, 10370 kPa | 707.408 | 0.2776
323.15 K, 15480 kPa | 713.832 | 0.2946
323.15 K, 20780 kPa | 720.04 | 0.311
333.15 K, 100 kPa | 681.435 | 0.2254
333.15 K, 4750 kPa | 689.427 | 0.2389
333.15 K, 10360 kPa | 697.963 | 0.2554
333.15 K, 15670 kPa | 705.137 | 0.2716
333.15 K, 20890 kPa | 711.63 | 0.2848
343.15 K, 130 kPa | 670.401 | 0.2064
343.15 K, 4390 kPa | 678.519 | 0.2183
343.15 K, 9530 kPa | 687.069 | 0.2335
343.15 K, 14740 kPa | 694.891 | 0.2471
343.15 K, 21230 kPa | 703.496 | 0.2649
353.15 K, 200 kPa | 659.151 | 0.1889
353.15 K, 4830 kPa | 668.72 | 0.203
353.15 K, 10320 kPa | 678.629 | 0.2176
353.15 K, 15760 kPa | 687.163 | 0.2324
353.15 K, 21100 kPa | 694.71 | 0.2466
363.15 K, 230 kPa | 647.498 | 0.1736
363.15 K, 4730 kPa | 657.763 | 0.1871
363.15 K, 10170 kPa | 668.51 | 0.2014
363.15 K, 15830 kPa | 678.192 | 0.2152
363.15 K, 20860 kPa | 685.734 | 0.2294
373.15 K, 310 kPa | 635.452 | 0.1602
373.15 K, 4730 kPa | 646.883 | 0.1721
373.15 K, 9630 kPa | 657.52 | 0.1854
373.15 K, 15600 kPa | 668.559 | 0.2008
373.15 K, 21680 kPa | 678.358 | 0.2152
